Data set [1] relates to human RB-null melanoma cells (A2058). Description: Cell cycle analysis (BrdU and propidium iodide, flow cytometry). It counts as cell-based. To be noted: A2058 (RB-null, CDK4/6-independent), 24 hours treatment. The protocol:
(§1) Cells were cultured in DMEM+10% FBS.
(§2) Cell cycle analysis: Cell cycle analysis was performed using BrdU and propidium iodide (both from BD Biosciences Pharmigen, San Jose, Calif., United States of America) following the manufacturer's protocol. Cells were treated for 24 hours with a test compound at a desired dose prior to 15 minutes BrdU pulse, cell harvesting, fixation, staining, and analysis by flow cytometry.
(§3) Histograms of dose-response curves of PD332991 and 2BrIC in HS68, WM2664 and A2058 cells were analyzed using Mod-Fit™ software from Verity Software House (Topsham, Me., United States of America).

The subject of data set [2] is human melanoma cells lacking INK4a/ARF (WM2664). The description is as above. Format: cell-based. To be noted: WM2664 (CDK4/6-dependent), 24 hours treatment. As for the experimental part:
as §1, §2, §3

Data set [3] concerns telomerized human diploid fibroblast (tHDF) cells (HS68). Described as above. Format: cell-based. To be noted: HS68 (CDK4/6-dependent), 24 hours treatment. As for the experimental part: as §1, §2, §3
The test system is the same in data set [4]. Kind of data set: Cell proliferation assay (WST-1 or CellTiter-Glo) after chemotherapeutic. To be noted: for protection from chemotherapy-induced cytotoxicity (cell proliferation assays): HS68 (CDK4/6-dependent), pretreatment prior to carboplatin, etoposide or doxorubicin; for chemoprotective effects against doxorubicin (cell viability, CellTiter-Glo) / protection from doxorubicin-induced cytotoxicity (cell viability, WST-1 assay): HS68; for chemoprotective effects against doxorubicin (cell viability, CellTiter-Glo): 16 hours pretreatment, DOX 370 nM 8 hours, viability after 7 days; for protection from doxorubicin-induced cytotoxicity (cell viability, WST-1 assay): absorbance at 450 nm, 7 days recovery.
Description: (§4) In some embodiments, cell viability is assessed by performing a assay using 2-(4-iodophenyl)-3-(4-nitrophenyl)-5-(2,4-disulfophenyl)-2H-tetrazolium monosodium salt (WST-1), such as described further hereinbelow. In the WST-1 assay, WST-1 is cleaved by a mitochondrial reductase present in viable cells to form a colored product (i.e., formazan) that can be detected by measuring absorbance at a particular wavelength (e.g., 420-480 nm). […] The CellTiter-Glo® assay (CTG assay; Promega, Madison, Wis., United States of America) measures cell viability by measuring ATP concentration in cell lysate.
(§5) Cell lines: Telomerized human diploid fibroblast (tHDF) cells (HS68) were cultured in Dulbecco's Modified Eagle Medium (DMEM) +10% fetal bovine serum (FBS) with any additional compounds. The same conditions were used for A2058 and WM2664, human melanoma cell lines with known RB-pathway mutations: A2058 is RB-null, whereas WM2664 lacks INK4a/ARF. Thus, A2058 cells are CDK4/6-independent, while WM2664 cells are CDK4/6-dependent. Cells were cultured in DMEM+10% FBS.
(§6) Cell proliferation assays: Cell proliferation assays were performed by seeding 1×10^3 cells per well in a 96-well tissue culture plate in 100 μL of growth medium. Cells were treated as indicated with compound from Table 1 and doxorubicin, etoposide or carboplatin. Following treatment, cells were allowed to recover for 7 days in normal growth medium. At the end of the recovery period, cell number was quantified using the VVST-1 cell proliferation assay (TaKaRa Bio USA, Madison, Wis., United States of America) or the CellTiter-Glo® assay (CTG; Promega, Madison, Wis., United States of America). Data is presented as absorbance at 450 nm for the WST assays or Relative Light Units (RLU) for the CTG assays.

Data set [5] deals with human RB-null melanoma cells (A2058). The data set is described as above. To be noted: for protection from chemotherapy-induced cytotoxicity (cell proliferation assays): A2058 (CDK4/6-independent), pretreatment prior to carboplatin, etoposide or doxorubicin; for chemoprotective effects against doxorubicin (cell viability, CellTiter-Glo): A2058, 16 hours pretreatment, DOX 370 nM 8 hours, viability after 7 days.
Description: as §4, §5, §6

Data set [6] relates to human melanoma cells lacking INK4a/ARF (WM2664). Described as above. To be noted: for protection from chemotherapy-induced cytotoxicity (cell proliferation assays): WM2664 (CDK4/6-dependent), pretreatment prior to carboplatin, etoposide or doxorubicin; for chemoprotective effects against doxorubicin (cell viability, CellTiter-Glo) / protection from doxorubicin-induced cytotoxicity (cell viability, WST-1 assay): WM2664; for chemoprotective effects against doxorubicin (cell viability, CellTiter-Glo): 16 hours pretreatment, DOX 122 nM 8 hours, viability after 7 days; for protection from doxorubicin-induced cytotoxicity (cell viability, WST-1 assay): absorbance at 450 nm, 7 days recovery.
Description: as §4, §5, §6

Entries after “also recorded” stand apart in the source; their conditions may differ.

Consider `O=c1c(-c2ccc(O)cc2)coc2cc(O)cc(O)c12` [Genistein], for which the cell cycle effect entry in data set [1], in data set [2] and in data set [3] was “did not induce a clean G1 arrest” throughout. For the same molecule, the “protection from chemotherapy-induced cytotoxicity (cell proliferation assays)” value (from here on “protection … (cell proliferation assays)”) in data set [4], in data set [5] and in data set [6] was “failed to protect” in each case. Also, the “chemoprotective effects against doxorubicin (cell viability, CellTiter-Glo)” value (“chemoprotective effects” for short) in data set [4], in data set [5] and in data set [6] was “absence of chemoprotective effects” throughout.
Regarding `CN1CCN(C(=O)c2ccc(Nc3ncc4cnn(C5CCCCC5)c4n3)cc2)CC1` [Compound 11], the cell cycle effect result in data set [1], in data set [2] and in data set [3] was “did not induce a clean G1 arrest” in each case. Further, the “protection … (cell proliferation assays)” value in data set [4] and in data set [6] was “failed to protect” each time. The “protection from doxorubicin-induced cytotoxicity (cell viability, WST-1 assay)” value (“protection … (cell viability, WST-1 assay)” below) in data set [4] and in data set [6] was “inability” each time.
Take `COc1ccc(F)c(F)c1C(=O)c1cnc(NC2CCN(S(C)(=O)=O)CC2)nc1N` [Compound 7]: the cell cycle effect result was “did not induce a clean G1 arrest” in data set [1], “did not induce a clean G1 arrest; also recorded: does not induce G1 arrest” in data set [2] and “did not induce a clean G1 arrest; also recorded: does not induce G1 arrest” in data set [3]. Moreover, the “protection … (cell proliferation assays)” value in data set [4], in data set [5] and in data set [6] was “failed to protect” in each case. Also, the “chemoprotective effects” value in data set [4], in data set [5] and in data set [6] was “absence of chemoprotective effects” each time.
For the molecule `CN1CCN(Cc2ccc(Nc3ncc4cnn(C5CCCCC5)c4n3)cc2)CC1` [Compound 9], the cell cycle effect entry in data set [1], in data set [2] and in data set [3] was “did not induce a clean G1 arrest” each time. Moreover, the “protection … (cell proliferation assays)” value in data set [4] and in data set [6] was “failed to protect” in each case. For the same molecule, the “protection … (cell viability, WST-1 assay)” value in data set [4] and in data set [6] was “inability” in each case.
On to `CN1CC[C@H](c2c(O)cc(O)c3c(=O)cc(-c4ccccc4Cl)oc23)[C@H](O)C1` [flavopiridol], for which the cell cycle effect result is reported as “did not induce a clean G1 arrest” in data set [1], “did not induce a clean G1 arrest; also recorded: does not induce G1 arrest” in data set [2] and “did not induce a clean G1 arrest; also recorded: does not induce G1 arrest” in data set [3]. Also, the “protection … (cell proliferation assays)” value in data set [4], in data set [5] and in data set [6] was “failed to protect” each time. Also, the “chemoprotective effects” value in data set [4], in data set [5] and in data set [6] was “absence of chemoprotective effects” in each case.
Regarding `CN1CCN(c2ccc(Nc3ncc4cnn(C5CCCCC5)c4n3)cc2)CC1` [Compound 8], the cell cycle effect entry in data set [1], in data set [2] and in data set [3] was “did not induce a clean G1 arrest” in each case. For the same molecule, the “protection … (cell proliferation assays)” value in data set [4] and in data set [6] was “failed to protect” throughout. Moreover, the “protection … (cell viability, WST-1 assay)” value in data set [4] and in data set [6] was “inability” in each case.

For the origin of these results see patent US20150111896A1, “HEMATOPOIETIC PROTECTION AGAINST CHEMOTHERAPEUTIC COMPOUNDS USING SELECTIVE CYCLIN-DEPENDENT KINASE 4/6 INHIBITORS” (The University of North Carolina at Chapel Hill, priority 2008, published 2015).
